{"source": "paper PMC10489073", "about": "(Molecules, 2023)", "key": {"[1]": {"tested_on": "cleaved caspase-3 in MM1.S cells", "test": "Western blot analysis, caspase-3 cleavage", "type": "cell-based", "conditions": "MM1.S, 1, 2 and 4 µM, 24 h", "description": "MM1.S cells were seeded in 6-well plates with a density of 2.5 × 10^6 cells/well. Then, the cells were cultured with 1, 2, and 4 μM BC-05 and 10 nM ixazomib, respectively. After incubation for 24 h, the cells were collected, and total proteins were extracted via RIPA containing a 2% protease inhibitor cocktail. Cell lysates were centrifugated at 4 °C, 12,000 rpm for 15 min, and the supernatants were collected and quantified with BCA assay. After being boiled at 100 °C for 10 min in a NuPAGE lithium dodecyl sulfate (LDS) sample buffer (5X), equivalent samples were separated by 12% sodium dodecyl-sulfate polyacrylamide gel electrophoresis at 120 V, transferred to immune-blot poly(vinylidene fluoride) (PVDF) membranes (Merck Millipore, Burlington, MA, USA) at 4 °C and then blocked by 5% non-fat milk in TBST for an hour. The membranes were incubated overnight at 4 °C with certain primary antibodies, which were deliquates by an antibody dilution buffer (Boster Bio, Pleasanton, CA, USA) and then washed with TBST. After incubating with a horseradish (HRP)-conjugated secondary antibody for 1 h at room temperature, the membranes were washed five times with TBST for 5 min. The images were visualized on the Tanon-5200 Chemiluminescent Imaging System via luminol reaction. […]"}, "MM1.S cells": {"tested_on": "MM1.S cells", "test": "Cell apoptosis assay (Annexin V-FITC/PI flow cytometry)", "type": "cell-based", "conditions": "48 h", "description": "For the cell apoptosis assay, MM1.S cells were plated in 12-well plates with a density of 6 × 10^5 cells per well and treated with BC-05 (1, 2, and 4 μM), ixazomib (10 nM) or a vehicle (0.5% DMSO) for 48 h after 12 h fixation. Then, cells were harvested, washed with a cold PBS buffer, and resuspended in 500 μL of an annexin V binding buffer. After being stained with 5 μL of Annexin V-FITC and 5 μL of propidium iodide, the cells were detected by a flow cytometer (Beckman Coulter Inc., Sharon Hill, PA, USA)."}, "[2]": {"test": "Subacute toxicity experiment", "type": "in vivo", "conditions": "SD rats, male and female, 0.006, 0.02 and 0.06 mmol/kg p.o. twice a week, 30 days", "description": "The animal experiments were conducted under the guidelines of the “Regulations for the Administration of Affairs Concerning Experimental Animals” (revised 2017, State Council No. 676). For the subacute toxicity study, 12 male and 12 female SD rats (purchased from the Weifang Medical University) were randomly divided into three treatment groups and a control group (n = 6, half male and half female). The rats in treatment groups were given 0.06 mmol/kg (p.o. BIW), 0.02 mmol/kg (p.o. BIW), and 0.006 mmol/kg (p.o. BIW) BC-05, respectively, for 30 days, while the rats in control groups were treated with the same volume of a vehicle solution. The rats were weighed each day and dissected at day 30. Behavioral abnormalities such as lethargy, ruffled fur, anorexia, clonic convulsion, and diarrhea were recorded throughout the entire experimental period."}, "P3x63Ag8.653": {"tested_on": "P3x63Ag8.653", "test": "Cell proliferation analysis (MTT)", "type": "cell-based, murine", "conditions": "Mus musculus, 48 h, read-out: Anti-proliferative activity IC50, P3x63Ag8.653", "description": "All tumor cell lines in the current research were grown in a certain growth medium containing 10% FBS and 1% (v/v/v) penicillin–streptomycin–amphotericin at 37 °C in 5% CO2. Cells were seeded into 96-well plates at a density of 8 × 10^3 cells per well for tumor adherent cells and 2 × 10^4 cells per well for tumor-suspended cells in a final volume of 100 μL. After 12 h, 100 μL of various concentrations of compounds was added to each and incubated for 48 h. A 0.5% MTT solution was added per well before the intermixture was incubated for another 4 h, and formazan formed from MTT was extracted by adding […] of DMSO rocking for 15 min. Absorbance was measured at 570 nm using a Spark multimode microplate from Tecan. The IC50 values were calculated according to the inhibition ratios."}, "[3]": {"tested_on": "H22 pulmonary metastasis tumor model", "test": "In vivo H22 pulmonary metastasis model", "set-up": "species or system Kunming mice", "conditions": "p.o., BIW, 2 weeks, vehicle group 71.5", "description": "The animal experiments were conducted under the guidelines of the “Regulations for the Administration of Affairs Concerning Experimental Animals” (revised 2017, State Council No. 676). H22 cells (3 × 10^6 cells/100 μL per mouse) were intravenously (i.v.) inoculated via the tail vein of Kunming mice aged 6 weeks on day 0. To ensure the growth of pulmonary metastasis before the drug treatment, the tumor was allowed to develop for 7 days. On day 8, the randomly grouped mice were treated with ixazomib (0.008 mmol/kg, p.o., BIW) or BC-05 (0.006, 0.008, and 0.01 mmol/kg, p.o., BIW) for consecutive 2 weeks. On day […], the mice were weighed and sacrificed, and the lungs were removed and weighed. After being fixed in the Bouin stationary solution for one day, the lung metastasized nodes of each mouse were numbered."}}}
{"smiles": "CC(C)C[C@H](NC(=O)[C@@H](O)[C@H](N)Cc1ccccc1)B1OC(=O)C(CC(=O)O)(CC(=O)O)O1", "note": "[BC-05, 2,2′-(2-((R)-1-((2S,3R)-3-amino-2-hydroxy-4-phenylbutanamido)-3-methylbutyl)-5-oxo-1,3,2-dioxaborolane-4,4-diyl)diacetic acid]", "values": [{"measurement": "Caspase-3 cleavage (Western blot)", "setting": "[1]", "value": "obvious"}, {"measurement": "cell apoptosis", "setting": "MM1.S cells; 1 µM", "value": 12.4, "unit": "%"}, {"measurement": "cell apoptosis", "setting": "MM1.S cells; 2 µM", "value": 73.1, "unit": "%"}, {"measurement": "cell apoptosis", "setting": "MM1.S cells; 4 µM", "value": 88.0, "unit": "%"}, {"measurement": "body weight loss", "setting": "[2]", "value": "did not exhibit any significant body weight loss"}, {"measurement": "IC50", "setting": "P3x63Ag8.653", "value": "17.7 ± 0.75", "unit": "µM"}, {"measurement": "number of H22 pulmonary nodes", "setting": "[3]; 0.006 mmol/kg", "value": 17.3}, {"measurement": "number of H22 pulmonary nodes", "setting": "[3]; 0.008 mmol/kg", "value": 15.2}, {"measurement": "number of H22 pulmonary nodes", "setting": "[3]; 0.01 mmol/kg", "value": 12.7}]}
